Assay results reported in patent US5312928A, “Calcium channel antagonists and methodology for their identification” (priority 1991, dated 1994).
“Also recorded” adds a separate entry of the source.

Tests used:
[1] = test system: L-type calcium channels (GH4 C1 cells); assay: Microscreen assay: K+-stimulated 45Ca uptake by GH4C1 clonal pituitary cells; type: cell-based, rat
Description: Frozen crude venom (40 μl) was thawed on ice and mixed with 210 μl of ice-cold 0.1% trifluoroacetic acid (TFA) in H2 O. The solution was centrifuged at room temperature for 5 min. at 13,000 rpm with an Eppendorf Centrifuge, and 240 μl of the supernatant was applied to a reversed-phase C18 HPLC column (100×250 mm, 5 μm bead size, 100 Å pore size, prepacked NGA column from The NEST Group). HPLC was performed using an acetonitrile gradient of 0 to 30% in 0.1% TFA in 105 min. at a flow rate of 4.0 ml/min. The elution was monitored by absorbance at 214 nm and 254 nm, and the fractions were collected manually according to the elution profile. Samples representing 5% of each fraction (corresponding to 2 μl crude venom per sample) were dried by Speed Vac (Savant), suspended in a buffer, and tested for their ability to block ^45 Ca^+ 2 influx into rat GH4C1 cells (see "Microscreen Assay for L-Type Calcium Channel Blockers" below).
Microscreen Assay for L-Type Calcium Channel Blockers
The rat GH4 C1 pituitary cells, a widely available cell line obtained from Dr. Armen Tashjian, Harvard Medical School, was used to measure effect of DOC preparations on calcium influx into cells.
Cell stocks were kept frozen in liquid nitrogen until needed. One ampule was thawed and then seeded onto a T-75 culture flask and grown to confluency. Thereafter, the cells were treated with a 1% trypsin solution in Hanks and replated onto T-25 culture flasks at different dilutions. Stocks were then kept growing and split as needed rather than refrozen. The medium used was Ham's F-10 supplied by Media-Tech containing 10% heat-inactivated fetal calf serum purchased from Hyclone. In general, the best response was obtained from 3-5 day post-confluent cells.
Cell suspension from one T-25 flask was prepared as follows for experiments. The flask was gently washed 2× with Hanks. 10 ml of warm 0.02% EDTA-Hanks was added to the flask and allowed to stand for approximately 30 seconds. The plate was sloshed, inverted and banged on a hard surface to dislodge the cells. 0.6 ml CMT-Hanks was immediately added and sloshed. The cells were then transferred to a 15 ml centrifuge tube and spun for 20-30 seconds at 50 g (700 RPM).
With a pipette, the supernatant was gently aspirated and resuspended by triturating the pellet in 0.4 ml HBBS. The cells were then transferred to a 4 ml flat bottom glass vial with a magnetic flea and stirred at the slowest speed.
Thereafter, low K^+ or high K^+ 4.2 μl ^45 Ca stock [eq. to 2 uCi/4.2 μl cells] was added to the tube and incubation was continued for 1 min. 790 μl HBBS was added to quench calcium uptake by the cells. The mixture was then pipetted up and down 2× before it was subjected to filtration in an Amicon filter manifold with a Whatman glass fiber filter. The filter was rinsed 5× with 5 ml HBBS buffer each. It is important that the buffer be squirted at the side of the chimney, straight down and not directly at the filter, since this may wash cells back up off the filter and onto the chimney. It is also important not to cause a whirlpool effect with the wash and create uneven rinsing of the filter.
A separate chimney for each well was used and each chimney was washed after use.
About 1 min. after the rinse, the chimney was removed to relieve the filter of suction to minimize loss of counts due to cell disruption. A set of four blanks (i.e., measurements using the same solutions but without cells) was run at the end of the assay to determine the background counts.

[2] = test system: synaptosomal calcium channels; assay: Microscreen assay: K+-stimulated 45Ca uptake by synaptosomes; type: biochemical, rat
Description: The screening method used to test calcium blocking activity in GH4 C1 cells of venom preparations, as described above, was modified as follows for determining the effect of DOC1 on synaptosomal calcium uptake.
After the buffers were made, the osmolarity of the quench buffer was adjusted by dilution with ddH2 O to approximately equal to the average of the osmolarities of the other 3 buffers. All the buffers were made up in ddH^2 O only.
For basal uptake: 5 μl NEN stock+995 μl low K+Ca buffer.
For depolarized (i.e., high K^+) uptake: 5 μl NEN+995 μl high K+Ca buffer.
The synaptosome preparation described below was an adoption of a published procedure. [Hajos F., Brain Res. 93:485-489 (1975)].
Basal buffer used was of the following composition: Basal buffer, pH 7.4, was of following composition: NaCl 147 mM, KCl 3 mM, HEPES 10 mM, Dextrose 10 mM, MgCl2 1.2 mM, and EGTA-Tris 1 mM. The high-K^+ buffer was the same as the basal buffer except that concentrations of NaCl and KCl were 95 mM and 55 mM, respectively.
Synaptosomes were prepared from CD male rats of 4 to 6 weeks (50-75 g). Rats were killed by decapitation with guillotine, and the skull bone was opened in the center with the pointed blade of dissection scissors. The bone was then peeled away with a bone cutter and the brain pried with a micro spatula. […]

[3] = test system: L-type calcium channels (GH4 C1 cells); assay: Whole-cell voltage-clamp electrophysiology, GH4 C1 cells; type: cell-based, rat
[4] = test system: DHP-resistant R-channels (N1E-115 cells); type: cell-based, murine
[5] = test system: T-type calcium channels (N1E-115 cells); type: cell-based, murine
[6] = test system: Na current, N1E-115 cells; type: cell-based, murine
[7] = test system: K currents, N1E-115 cells; type: cell-based, murine; conditions: @ 1 U/ml
[8] = test system: L-channels? (cortical neurons); assay: Block of K-stimulated 45Ca uptake, cortical neurons; type: cell-based
From the text: Summarized in the Table below are results of experiments designed to study the effect of DOC1 on calcium channels by calcium 45 uptake measurement and electrophysiological method, both of which are described above.

[9] = test system: dihydropyridine binding sites on the L-type calcium channels; conditions: up to 0.6 units/ml; rat brain membranes
From the text: Other compounds which act through the same binding site as the dihydropyridines will inhibit this [^3 H]nimodipine binding.

L-type channels = conditions: characteristic of dihydropyridines, background; read-out: IC50 for L-channel block; cited from earlier work
stroke = conditions: cited from earlier work

SMILES: NCCCNCCCNCCCNCCCCCNC(=O)Cc1c[nH]c2cccc(O)c12 [DOC1]
- relative potency DOC1 vs DOC3 in blocking calcium uptake ([1]; FIG. 6, DOC1 compared with DOC3): several-fold more potent than DOC3
- activity in the 45Ca2+ influx assay / block of potassium-stimulated calcium uptake (in words) ([1]; GH4 C1 clonal pituitary cells): blocked potassium-stimulated calcium uptake; also recorded: active; also recorded: possess calcium blocking activity
- Block of DHP-sensitive L-type channels, GH4 C1 clonal pituitary cells, 45Ca uptake, IC50 ([1]; consistent inhibitory effects, IC50 varied among GH4 C1 cultures): 0.4-1.5 units/ml
- inhibition of K+-stimulated calcium uptake by synaptosomes ([2]; concentrations up to 0.5 units/ml, not more than about 30%): ≤ 30%
- block of synaptosomal calcium channels (in words) ([2]; in comparison with block of L-type channels in GH4 C1 cells): substantially less effective and potent
- block of current through calcium channels, GH4 C1 cells ([3]; 0.4-1.0 U/ml, depolarizations to between -10 and +20 mV): up to 80%
- reversibility of block of calcium channel current, GH4 C1 cells ([3]; FIG. 10): reversibly blocked; also recorded: capable of reversibly blocking electrical current
- Block of DHP-sensitive L-type channels, GH4 C1 clonal pituitary cells, electrophysiol, IC50 ([3]; puff application): 1.5 units/ml
- Block of DHP-resistant R-channels, N1E-115 cells (electrophys), IC50 [4]: 0.4 units/ml
- concentration yielding half-maximal inhibition of high-threshold current remaining after nimodipine ([4]; 10 μM nimodipine, maximum block 45%, FIG. 12): 0.37 U/ml
- inhibition of high-threshold current in continuous presence of nimodipine (in words) ([4]; 1.0 U/ml DOC1, 10 μM nimodipine, FIG. 11A, 11B): inhibition of the high-threshold current; also recorded: blocks high-threshold current
- reversibility and dose-dependence of the actions ([4]; upon washout): reversible upon washout and were dose-dependent
- effect on T-type current (in words) ([5]; evoked by weak depolarizations from negative holding potentials, FIG. 11C): did not substantially affect the T-type current; also recorded: no block of putative T-type channels was observed; also recorded: little effect on T-type current
- Block of low threshold, inactivating (T?) channels, N1E-115 cells (electrophysiol), IC50 ([5]; words in the IC50 column): none
- specificity for Ca channels over Na or K channels (in words) ([6]; Na or K channels, N1E-115 cells): striking specificity
- selectivity for Ca versus Na currents ([6]; on the order of): two
- Block of Na current, N1E-115 cells, IC50 ([6]; words in the IC50 column): not signif.
- Block of K currents, N1E-115 cells [7]: 12%
- Block of K-stimulated 45Ca uptake (L-channels?), cortical neurons, IC50 ([8]; IC50 varied among sensitive cultures): 0.1-0.4 units/ml
- sensitivity of cortical neuron cultures (in words) ([8]; some cultures of cortical neurons): insensitive
- inhibition of [3H]nimodipine binding (in words) [9]: no significant inhibition; also recorded: no inhibition of nimodipine binding

SMILES: COC(=O)C1=C(C)NC(C)=C(C(=O)OC)C1c1ccccc1[N+](=O)[O-] [nifedipine]
- IC50 (L-type channels): < 1 µM

SMILES: COCCOC(=O)C1=C(C)NC(C)=C(C(=O)OC(C)C)C1c1cccc([N+](=O)[O-])c1 (stereo not shown) [nimodipine]
- IC50 (L-type channels): < 1 µM
- cardiovascular side effects (stroke; background statement): significant cardiovascular side effects
- improvement in the outcome of stroke in clinical trials (stroke; clinical trials, Gelmers et al. 1988): Modest improvement in the outcome of stroke
